The nature of this data set: LC-MS/MS MRM quantitation of metformin-MG imidazolinone and metformin in human urine. The format is in vivo. The protocol:
An Agilent (Palo Alto, Calif.) 1260 liquid chromatograph was utilized for achieving gradient separation using an Agilent ZORBAX Hilic Plus (2.1×50 mm) column with a 1.8 μm packing size held at 30° C. throughout the separation. A 5 μL injection of urine diluted 1:200 in Milli-Q water and snap filtered ([…] eXtreme® Filter Vial 0.2 um PVDF; Thomson, Oceanside, Calif.) was used for all samples. A binary gradient consisting of 15 mM ammonium acetate in water (A) and acetonitrile (B) at a flow rate of 300 μL/min was used. […] After this, a linear gradient was maintained to achieve 35% B at 9 min which was held for another minute. At 10 min, another linear change was applied to get to the initial condition of 95% B at 11 min. A post-time of three min was used to re-equilibriate the column before the next analysis. The total analysis time was 14 min per sample. Mass spectrometry was performed using an Agilent 6490 triple-quadrupole mass spectrometer with an electrospray ionization (ESI) source. […] After this was determined, the mass spectrometer was operated in product ion scan mode and the most abundant product ions were selected. […] Once the product ions were determined, the collision energy (CE) and cell accelerator voltage (CAV) were optimized for each transition. […]

The structures appear in SMILES notation.

As for `CC1NC(/N=C(\N)N(C)C)=NC1=O` (centres unmarked) [IMZ, (E)-1,1-dimethyl-2-(5-methyl-4-oxo-4,5-dihydro-1H-imidazol-2-yl)guanidine], the “IMZ in urine of MF-treated T2DM patients” value (all MF-treated T2DM patients) is on record as “detected”. For the same compound, the “Levels of the MF-MG adduct detectable in urine” value (human diabetic subjects on MF treatment) was “up to 4.32 μM/specific gravity”.

The record behind these values is patent US20190137505A1 (THE ARIZONA BOARD OF REGENTS ON BEHALF OF THE UNIVERSITY OF …, priority 2015, published 2019).
